Test results published in the supplement of paper PMC11061612.

Key:
Experiment in all cases: Bliss excess, mean over the matrix (fraction); higher = more synergy
[1] = tested on: ASH-3 (Thyroid Gland Carcinoma)
Method in brief: (§1)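 Cell lines in DMEM/F12 or RPMI with 10% FBS were plated in 1536-well plates, held 24 hours at 37°C, 5% CO2, then given two-drug dose matrices for 72 hours (DMSO typically 0.2%). Viability was read by CellTiter-Glo 2.0 luminescence and scaled as inhibition from 0 (vehicle wells) to 1 (blank wells). Combination Emax is the second-highest inhibition in the matrix; Bliss excess is observed combination effect minus expected EA + EB − EA·EB, EA and EB being single-agent effects.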

[2] = tested on: BV-173 (Chronic Myelogenous Leukemia)
Method in brief: as §1

[3] = tested on: EMC-BAC-2 (Non-Small Cell Lung Carcinoma)
Method in brief: as §1

EW-13 (Ewing's Sarcoma) = tested on: EW-13 (Ewing's Sarcoma)
Method in brief: as §1

GI-1 (Glioblastoma) = tested on: GI-1 (Glioblastoma)
Method in brief: as §1

[4] = tested on: H-EMC-SS (Chondrosarcoma)
Method in brief: as §1

[5] = tested on: HC-1 (Other Blood Carcinomas)
Method in brief: as §1

[6] = tested on: HSC-2 (Oral Cavity Carcinoma)
Method in brief: as §1

[7] = tested on: JHH-7 (Hepatocellular Carcinoma)
Method in brief: as §1

[8] = tested on: KINGS-1 (Low Grade Glioma)
Method in brief: as §1

[9] = tested on: KLE (Endometrial Carcinoma)
Method in brief: as §1

[10] = tested on: KYSE-150 (Esophageal Squamous Cell Carcinoma)
Method in brief: as §1

[11] = tested on: KYSE-50 (Esophageal Squamous Cell Carcinoma)
Method in brief: as §1

[12] = tested on: LC4-1 (B-Lymphoblastic Leukemia)
Method in brief: as §1

[13] = tested on: MFE-319 (Endometrial Carcinoma)
Method in brief: as §1

NB7 (Neuroblastoma) = tested on: NB7 (Neuroblastoma)
Method in brief: as §1

[14] = tested on: NCI-H2405 (Lung Adenocarcinoma)
Method in brief: as §1

[15] = tested on: NCI-H513 (Other Solid Carcinomas)
Method in brief: as §1

NH-12 (Neuroblastoma) = tested on: NH-12 (Neuroblastoma)
Method in brief: as §1

[16] = tested on: PF-382 (T-Lymphoblastic Leukemia)
Method in brief: as §1

Compound	Bliss excess [1]	Bliss excess [2]	Bliss excess [3]	Bliss excess (EW-13 (Ewing's Sarcoma))	Bliss excess (GI-1 (Glioblastoma))	Bliss excess [4]	Bliss excess [5]	Bliss excess [6]	Bliss excess [7]	Bliss excess [8]	Bliss excess [9]	Bliss excess [10]	Bliss excess [11]	Bliss excess [12]	Bliss excess [13]	Bliss excess (NB7 (Neuroblastoma))	Bliss excess [14]	Bliss excess [15]	Bliss excess (NH-12 (Neuroblastoma))	Bliss excess [16]
CCN(CCO)CCCOc1ccc2c(Nc3cc(CC(=O)Nc4cccc(F)c4)[nH]n3)ncnc2c1 [AZD2811] + C[C@@H]1COCCN1C2=NC(=NC(=C2)C3(CC3)[S@](=N)(=O)C)C4=C5C=CNC5=NC=C4 [AZD6738] (first compound max 1 µM, 7x7, partner max 10 µM)	-0.0367	-0.0537	-0.0939	-0.0257	0.0144	-0.0723	-0.007	-0.0424	-0.048	-0.112	-0.0262	-0.0466	-0.051	-0.0882	-0.0472	0.0084	-0.0526	-0.0145	0.0347	-0.089
CCN(CCO)CCCOc1ccc2c(Nc3cc(CC(=O)Nc4cccc(F)c4)[nH]n3)ncnc2c1 [AZD2811] + O=C(c1cc(Cc2n[nH]c(=O)c3ccccc23)ccc1F)N1CCN(C(=O)C2CC2)CC1 [Olaparib] (first compound max 1 µM, 7x7, partner max 10 µM)	0.0118	-0.0212	0.0112	-0.0532	0.0685	-0.0353	0.0928	0.0524	0.0118	-0.0579	-0.282	0.0291	0.0397	-0.0598	0.0376	0.0598	-0.0075	-0.0203	0.0109	-0.0335
CN(CCO)CC[C@H](CSc1ccccc1)Nc1ccc(S(=O)(=O)NC(=O)c2ccc(N3CCC([C@@H](O)c4ccccc4-c4ccc(Cl)cc4)CC3)cc2)cc1S(=O)(=O)C(F)(F)F [AZD4320] + C1CN(CCC1(C(=O)N[C@@H](CCO)C2=CC=C(C=C2)Cl)N)C3=NC=NC4=C3C=CN4 [Capivasertib] (first compound max 1 µM, 7x7, partner max 3 µM)	-0.0192	-0.0135	-0.0761	-0.0633	0.0172	-0.0081	-0.0058	-0.0379	-0.0256	-0.103	-0.0467	-0.0579	-0.0344	0.0319	-0.0081	-0.0403	-0.0513	-0.0501	-0.0589	0.0458
CN(CCO)CC[C@H](CSc1ccccc1)Nc1ccc(S(=O)(=O)NC(=O)c2ccc(N3CCC([C@@H](O)c4ccccc4-c4ccc(Cl)cc4)CC3)cc2)cc1S(=O)(=O)C(F)(F)F [AZD4320] + C=CCn1c(=O)c2cnc(Nc3ccc(N4CCN(C)CC4)cc3)nc2n1-c1cccc(C(C)(C)O)n1 [AZD1775] (first compound max 1 µM, partner max 1 µM)	0.0819	-0.0038	-0.0078	0.0172	0.0542	-0.0004	0.206	0.058	0.0362	0.0509	0.0083	-0.0634	-0.0682	0.0369	0.0537	0.0051	-0.0234	0.0699	-0.0149	-0.0132
CN(CCO)CC[C@H](CSc1ccccc1)Nc1ccc(S(=O)(=O)NC(=O)c2ccc(N3CCC([C@@H](O)c4ccccc4-c4ccc(Cl)cc4)CC3)cc2)cc1S(=O)(=O)C(F)(F)F [AZD4320] + CCN(CCO)CCCOc1ccc2c(Nc3cc(CC(=O)Nc4cccc(F)c4)[nH]n3)ncnc2c1 [AZD2811] (first compound max 1 µM, 7x7, partner max 1 µM)	0.0577	-0.0566	-0.0251	-0.0076	0.144	0.0545	0.173	0.166	-0.0085	0.006	-0.0207	0.007	-0.0211	-0.0049	0.0841	0.0258	-0.0333	-0.0283	-0.049	0.0518
CN(CCO)CC[C@H](CSc1ccccc1)Nc1ccc(S(=O)(=O)NC(=O)c2ccc(N3CCC([C@@H](O)c4ccccc4-c4ccc(Cl)cc4)CC3)cc2)cc1S(=O)(=O)C(F)(F)F [AZD4320] + CN(C)CCCOc1ccc(-c2ccc3ncc4c(c3c2)n(C2CCOCC2)c(=O)n4C)cn1 [AZD0156] (first compound max 1 µM, 7x7, partner max 1 µM)	0.0341	-0.0681	-0.0683	-0.0303	0.0066	-0.0374	-0.0813	-0.0242	-0.0408	0.007	-0.0824	-0.0392	-0.0341	0.0937	-0.0009	-0.0333	-0.0378	-0.0484	-0.0565	-0.002
CN(CCO)CC[C@H](CSc1ccccc1)Nc1ccc(S(=O)(=O)NC(=O)c2ccc(N3CCC([C@@H](O)c4ccccc4-c4ccc(Cl)cc4)CC3)cc2)cc1S(=O)(=O)C(F)(F)F [AZD4320] + C[C@@H]1COCCN1C2=NC(=NC(=C2)C3(CC3)[S@](=N)(=O)C)C4=C5C=CNC5=NC=C4 [AZD6738] (first compound max 1 µM, 7x7, partner max 10 µM)	-0.0011	-0.0453	-0.0695	-0.0009	-0.0203	-0.0351	0.0127	0.0594	0.0174	-0.0806	-0.0709	-0.0536	-0.0537	0.0481	-0.0119	-0.0181	-0.0448	-0.0586	-0.0795	-0.0126
CN(CCO)CC[C@H](CSc1ccccc1)Nc1ccc(S(=O)(=O)NC(=O)c2ccc(N3CCC([C@@H](O)c4ccccc4-c4ccc(Cl)cc4)CC3)cc2)cc1S(=O)(=O)C(F)(F)F [AZD4320] + C[C@@H](Nc1cc(F)cc(F)c1)c1cc(C(=O)N(C)C)cc2c(=O)cc(N3CCOCC3)oc12 [AZD8186] (first compound max 1 µM, 7x7, partner max 3 µM)	-0.051	0.0166	0.0472	-0.015	-0.0011	-0.0277	0.0252	-0.0401	0.0257	0.0959	0.0304	-0.0055	0.0097	0.0908	0.0048	0.0133	-0.0239	0.0113	-0.0224	0.0836
CN(CCO)CC[C@H](CSc1ccccc1)Nc1ccc(S(=O)(=O)NC(=O)c2ccc(N3CCC([C@@H](O)c4ccccc4-c4ccc(Cl)cc4)CC3)cc2)cc1S(=O)(=O)C(F)(F)F [AZD4320] + Cc1cc2ncnn2cc1Nc1ncc2c(n1)n(C1CCOCC1)c(=O)n2C [AZD7648] (first compound max 1 µM, 7x7, partner max 10 µM)	-0.0866	-0.0643	-0.0482	-0.0223	0.0161	-0.0218	0.0352	0.0257	-0.0253	-0.0152	-0.0116	-0.0396	-0.0198	0.0066	-0.0557	-0.0286	-0.0351	-0.0438	-0.0248	0.0269
CN(CCO)CC[C@H](CSc1ccccc1)Nc1ccc(S(=O)(=O)NC(=O)c2ccc(N3CCC([C@@H](O)c4ccccc4-c4ccc(Cl)cc4)CC3)cc2)cc1S(=O)(=O)C(F)(F)F [AZD4320] + Cn1cnc2c(F)c(Nc3ccc(Br)cc3Cl)c(C(=O)NOCCO)cc21 [Selumetinib] (first compound max 1 µM, 7x7, partner max 3 µM)	-0.026	-0.018	0.0022	-0.0149	0.0069	-0.0378	0.0026	0.0195	-0.0214	0.0328	0.0087	-0.0152	0.0405	0.0831	0.0645	0.0397	0.0717	0.0445	0.0593	0.0409
COc1nnc2ccc(N3CCC(c4ccc(OCCN5CCN(C)C(=O)[C@H]5C)cc4)CC3)nn12 [AZD5153] + C=CCn1c(=O)c2cnc(Nc3ccc(N4CCN(C)CC4)cc3)nc2n1-c1cccc(C(C)(C)O)n1 [AZD1775] (first compound max 1 µM, partner max 1 µM)	-0.024	-0.0256	-0.0014	-0.0239	-0.0143	-0.0488	-0.078	-0.0167	-0.0749	-0.0123	-0.0754	-0.049	0.0211	-0.0018	-0.13	-0.0352	0.0195	-0.0857	-0.123	-0.0176
COc1nnc2ccc(N3CCC(c4ccc(OCCN5CCN(C)C(=O)[C@H]5C)cc4)CC3)nn12 [AZD5153] + CC1(C)CCC(CN2CCN(c3ccc(C(=O)NS(=O)(=O)c4ccc(NCC5CCOCC5)c([N+](=O)[O-])c4)c(Oc4cnc5[nH]ccc5c4)c3)CC2)=C(c2ccc(Cl)cc2)C1 [Venetoclax] (first compound max 1 µM, 7x7, partner max 1 µM)	0.0122	-0.0706	-0.101	0.0173	0.0247	-0.0508	0.0089	-0.0196	-0.0676	-0.0288	-0.0384	0.0061	-0.0591	-0.0482	-0.124	-0.0287	-0.0484	-0.086	-0.0333	-0.0551
COc1nnc2ccc(N3CCC(c4ccc(OCCN5CCN(C)C(=O)[C@H]5C)cc4)CC3)nn12 [AZD5153] + CCN(CCO)CCCOc1ccc2c(Nc3cc(CC(=O)Nc4cccc(F)c4)[nH]n3)ncnc2c1 [AZD2811] (first compound max 1 µM, 7x7, partner max 1 µM)	-0.0284	-0.0561	-0.0242	0.0251	0.0977	-0.0226	-0.0099	-0.0106	-0.0696	-0.0374	-0.0704	-0.0134	-0.0309	-0.0739	-0.085	-0.0296	-0.0102	-0.108	-0.121	-0.0108
